Data set [1] can be described thus: Liposome leakage assay, POPC liposomes containing calcein. To be noted: pH5 and pH7, 20 μg as starting point. How it is done:
Leakage activity was plotted against peptide concentration.
The peptide ppTG1 was tested for its capacity to cause membrane disruption in a liposome leakage assay with POPC liposomes containing the fluorescent product calcein. […] Release of calcein by Triton X-100 treatment was taken as positive control reaction, incubation with water served as negative control. The membranolytic activity of peptide ppTG1 (20 μg as starting point) was compared with those of equal quantities (20 μg) of JTS-1, JTS-1-K13 and KALA.

The next data set concerns 293-EBNA cells. Nature of the data set: Transfection in vitro, luciferase plasmid pTG11056. It is filed as cell-based. How it is done:
Cells were plated on 24 well plates at a density of 4×10^4 (293-EBNA ) or 7×10^4 (HeLa, Renca) cells/well in DMEM supplemented with 10% FCS. The next day, the medium was replaced by 200 μl serum-free DMEM and plasmid (pTG11056 or pTG11236)/peptide complexes or plasmid/peptide/lipid complexes were prepared in 30 μl 0.9% NaCl or 5% glucose. After 20 min at room temperature these complexes were added to the cells which were then incubated for 2-3 h at 37° C. and 5% CO2 before 1 ml serum-containing DMEM was added. Approximately 20-hours later, cells were lysed by addition of 100 μl 1× Promega lysis buffer, 20 μl of the lysates were analysed for luciferase activity. Proteins were quantified with the bicinchonic acid (BCA) colorimetric method (Smith, Anal. Biochem. 150 (1985), 76-85).
4×10^4 293-EBNA cells, plated on 24 well plates the day before, were transfected with 0.5 μg, 0.1 μg, 0.05 μg and 0.01 μg of the plasmid pTG11056. The plasmid was either mixed with completely or uncompletely DNA-complexing amounts of ppTG1 in 30 μl 5% glucose and after 20 min at room temperature the mixture was added to the cells which were incubated in 200 μl serum-free medium. Further, pTG11056 was formulated with the established transfection reagents Lipofectin and PEI. […] After twenty hours, cells were washed and luciferase activity was determined in ⅕ of the lysed cells.

Data set [2] can be described thus: Liposome leakage assay, POPC/cholesterol 3:2 liposomes. The settings on record: for liposome leakage activity, in words: POPC/chol 3:2 liposomes.
Procedure: Increasing amounts of the indicated peptides were incubated with POPC/Cholesterol (3:2 mol/mol) liposomes for 30 min at RT. Emitted fluorescence was plotted against peptide concentration. […] B) Liposome leakage activity with complexes of ppTG1 and the plasmid pTG11236 at pH7.
1-Palmitoyl-2-Oleoyl-phosphatidylcholine (POPC) liposomes were prepared by the repeated freeze-thaw method followed by extrusion (Olson et al., 1979, Biochim. Biophys. Acta 557, 19-23). Ten μ-moles of POPC in chloroform were placed in a glass tube and solvent was evaporated under reduced pressure using a Labconco Rapidvap vortex evaporator (Uniequip, Germany). The resulting lipid film was hydrated with 0.5 ml of an aqueous solution of calcein (lOOmM calcein, 3.75 eq. NaOH, 50mM NaCl). The lipid suspension was sonicated until the solution became clear using a sonic water bath (Bransonic 221, Branson Ultrasonics Corp., USA). Five cycles of freeze-thaw were performed before liposomes were extruded by 4 passages through 200 nm pore diameter polycarbonate membranes (Nuclepore, Costar, Mass., USA). Free calcein was removed from calcein encapsulated into liposomes by gel exclusion chromatography using a Sephadex G-50 column (3 cm×14 cm) and a 200 mM NaCl, 25 mM HEPES, pH 7.3 solution as the elution buffer. The final lipid concentration was determined by a phosphorus assay (Bartlett, 1959, J. Biol. Chem. 234, 466-469). Liposomes' diameter was determined by dynamic laser light scattering using a Coulter N4 Plus submicron particle sizer (Coultronics France S. A, France). Measurements were performed within a 3 nm-10000 nm size window with a fixed 90° scattered light angle.
The liposome leakage assay was carried out as described in Planck et al. (1994, J. Biol. Chem. 269, 12918-12924). The liposome stock solution was diluted to a lipid concentration of 45 μM in 1.8× assay buffer (360 mM NaCl, 36 mM sodium citrate, pH 5 and pH 7). A 1:5 serial dilution of the tested peptide was carried out in a 96-well microtiter plate by transferring 20 μl of the peptide solution from one well to the next well and diluting with 80 μl H2O. 100 μl of the liposome solution was added in each well (final lipid concentration: 25 μM) and, after 30 min at room temperature, was assayed for fluorescence at 535 nm (excitation: 485 nm) on a microtiter plate fluorescence spectrometer (WALLAC, 1420 multilabel counter Victor). These conditions are appropriate to analyze fluorescein and as close as possible to the appropriate excitation/ emission profile of calcein (495 nm /515 nm). The value for 100% leakage was obtained by addition of 1 μl of a 10% Triton X-100 solution. Leakage activity was plotted against peptide concentration.
Liposome leakage activities were analyzed on liposomes consisting of POPC and cholesterol at a molar ratio of 3:2 (mol/mol).
Complexes of ppTG1 with plasmid DNA pTG11236 were tested for liposome leakage activity on POPC/chol 3:2 liposomes.
The series of ppTG1 derivatives as they are listed in Materials and Methods was tested for liposome leakage activity on POPC/chol 3:2 liposomes at pH7.
The test system of a further data set is plasmid pTG11236. Nature of the data set: Gel retardation assay (DNA binding). How it is done: 3μg of the plasmid pTG11236 were incubated with increasing amounts of the respective peptide in a final volume of 30 μl with 0.9% NaCl. After 20 min of incubation at room temperature, 6 μl 5× loading buffer (glycerol and bromphenol blue in TAE buffer) were added and 10 μl of these solutions were analyzed on a 1% agarose gel in the presence of ethidium bromide.
The ability of ppTG1 peptide to complex DNA was analyzed by gel retardation assays. […] After 20 minutes incubation at room temperature, loading buffer was added and 10 μl of the resulting solution were analyzed on a 1% agarose gel.
ppTG1 derivatives as they are indicated in Materials and Methods, were tested for their capacity to bind plasmid DNA by gel retardation assays.

The values below come from US20020055174A1, “Complex for transferring an anionic substance of interest into a cell” (priority 2000, published 2002).

Ends that are not written are not given here.

Consider GLFKALLKLLKSLWKLLLKA, for which the “membrane disruption (calcein release)” value in data set [1] is reported as “capable of causing membrane disruption”. For the same sequence, the transfection efficiency entry in the data set on 293-EBNA cells (0.05 μg pTG11056 mixed with 0.065 μg ppTG1, charge ratio around 1) is given as “still showed high transfection efficiency”. Also, the luciferase activities result with 293-EBNA cells (0.5 μg pTG11056 complexed with 0.65 μg ppTG1, charge ratio around 1) is “higher than those observed with complexes formed with Lipofectin or PEI”. The “liposome leakage activity, in words” value in data set [2] (pH5) and in data set [2] (pH7) was “could efficiently liberate calcein” each time. Further, the “liposome leakage of peptide/plasmid complexes” value in data set [2] (complexed with pTG11236, P/N 5 or 10, pH7) is listed as “comparable to free ppTG1”; in data set [2] (complexed with pTG11236, P/N of 1 or 0.8, pH7), “slightly reduced”. Besides, in data set [2] (peptide alone or complexed with plasmid DNA, summary), the “destabilization of POPC/Chol liposomes” value is given as “destabilizes efficiently”. Also, the “amount of peptide at which 50% of the DNA is complexed” value with plasmid pTG11236 (3 μg pTG11236, 1 μg = 0.35 nmol) stood at 1 µg. The “amount of peptide giving retardation of plasmid” value with plasmid pTG11236 (3 μg plasmid DNA (0.8 pmol), 4 μg peptide = 1.4 nmol) was 4 µg.
